Experimental data reported in patent publication US8399425B2, “Alleviating neuropathic pain with EETs and sEH inhibitors” (The Regents of the University of California, priority 2007, dated 2013).

Columns and labels:
rat sEH = target: T1, rat sEH (Rattus norvegicus, UniProt P80299); assay: rat sEH inhibition; format: biochemical
T1 sequence (P80299 1-554): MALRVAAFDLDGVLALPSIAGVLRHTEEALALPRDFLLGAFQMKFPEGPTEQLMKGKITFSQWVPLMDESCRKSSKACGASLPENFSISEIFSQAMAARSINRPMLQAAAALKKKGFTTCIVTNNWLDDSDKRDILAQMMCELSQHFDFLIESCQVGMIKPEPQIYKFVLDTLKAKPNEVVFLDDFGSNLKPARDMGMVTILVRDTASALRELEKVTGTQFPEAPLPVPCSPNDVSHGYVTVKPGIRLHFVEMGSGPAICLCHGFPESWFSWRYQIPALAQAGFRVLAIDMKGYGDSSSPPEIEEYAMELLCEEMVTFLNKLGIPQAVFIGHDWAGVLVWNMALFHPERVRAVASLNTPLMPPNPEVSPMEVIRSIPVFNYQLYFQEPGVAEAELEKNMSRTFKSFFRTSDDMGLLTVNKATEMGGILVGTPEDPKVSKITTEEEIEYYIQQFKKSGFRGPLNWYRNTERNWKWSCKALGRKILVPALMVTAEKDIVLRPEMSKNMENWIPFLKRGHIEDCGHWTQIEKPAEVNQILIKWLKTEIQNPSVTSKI

sEH [1] = assay: inhibition of sEH; format: biochemical; conditions: relative to parent compound
Source text: (§1) Any of a number of standard assays for determining epoxide hydrolase activity can be used to determine inhibition of sEHI. […] Suitable in vitro assays are described in Zeldin et al. J. Biol. Chem. 268:6402-6407 (1993). Suitable in vivo assays are described in Zeldin et al., Arch Biochem Biophys 330:87-96 (1996).
(§2) The enzyme also can be detected based on the binding of specific ligands to the catalytic site which either immobilize the enzyme or label it with a probe such as dansyl, fluoracein, luciferase, green fluorescent protein or other reagent. The enzyme can be assayed by its hydration of EETs, its hydrolysis of an epoxide to give a colored product as described by Dietze et al., 1994, supra, or its hydrolysis of a radioactive surrogate substrate (Borhan et al., 1995, supra). The enzyme also can be detected based on the generation of fluorescent products following the hydrolysis of the epoxide. Numerous methods of epoxide hydrolase detection have been described (see, e.g., Wixtrom, supra).
(§3) The assays are normally carried out with a recombinant enzyme following affinity purification. They can be carried out in crude tissue homogenates, cell culture or even in vivo, as known in the art and described in the references cited above.

[2] = test system: streptozocin induced neuropathic pain; assay: von Frey test (mechanical allodynia) in streptozocin neuropathic rats; format: in vivo, rat; conditions: neuropathic pain model
Experimental: Male Sprague-Dawley rats weighing 250-300 grains were used. Animals were individually housed at UC Davis Animal Resource Facility under standard conditions with free access to food and water, and maintained for at least 1 week before the experiments. Pain was quantified using three tests, the hind paw withdrawal latency test, the mechanical hyperalgesia test and the mechanical allodynia test. All the experiments were performed during the daytime.
Rats were first trained to the experimental chamber in two separate sessions. On the day of the induction of neuropathy, the animals' basal response to all three tests were measured and then streptozocin (50 mg/kg) was administered intravenously. Animals were then followed over time for the development of neuropathic pain. An inhibitor of sEH was administered subcutaneously one week after the onset of pain symptoms. […] Compounds were formulated by dissolving them in ethanol and mixing with trans free oleic oil. At least six animals per group were used. The Von Frey test was conducted by stimulating the plantar surface of the rats' hind paw with a calibrated filament connected to a force transducer. As this filament is applied the amount of force exerted on the paw increases and the animal withdraws its paw when the force reaches its threshold. […] In the Randal-Selitto test a similar principle is used. The animals' hind paw is placed between a flat surface and a pointed tip of a force transducer. The pointed tip exerts force on the dorsal face of the paw. […] The two tests are complementary, but depend on the activity of different groups of nociceptors.
Treatments and behavioral nociceptive tests. […] Following baseline measurements, rats were first treated with 200 μl of vehicle or compound-formulated cream by topical application to one hindpaw, LPS ([…] in 50 μl 0.9% NaCl) was injected into the plantar surface of the treated paw. For subcutaneous administration, compounds were injected immediately after intraplantar LPS. […] A probe fitted with a filament that is connected to a force transducer was applied to the plantar hind paw surface through a wire-mesh platform until eliciting a withdrawal reflex. The duration of heat application or the force (gr) necessary to elicit a withdrawal was designated as TWL and MWT. The steroidogenesis inhibitors were applied 2 hours before sEHI and LPS administration. Diabetes was induced by intravenous injection of 50 mg/kg streptozocin (STZ) in saline following baseline measurements. Diabetic animals were tested at least one week after STZ administration. Three measurements were taken from each animal at each time point and average responses were converted to percent analgesia index based on each animals' baseline response.

[3] = test system: streptozocin induced neuropathic pain; assay: mechanical hyperalgesia test (Randal-Selitto) in streptozocin neuropathic rats; format: in vivo, rat
Experimental: Male Sprague-Dawley rats weighing 250-300 grains were used. Animals were individually housed at UC Davis Animal Resource Facility under standard conditions with free access to food and water, and maintained for at least 1 week before the experiments. Pain was quantified using three tests, the hind paw withdrawal latency test, the mechanical hyperalgesia test and the mechanical allodynia test. All the experiments were performed during the daytime. Rats were first trained to the experimental chamber in two separate sessions. On the day of the induction of neuropathy, the animals' basal response to all three tests were measured and then streptozocin (50 mg/kg) was administered intravenously. Animals were then followed over time for the development of neuropathic pain. An inhibitor of sEH was administered subcutaneously one week after the onset of pain symptoms. […] Pain response was measured at 60, 120, 240 and 480 minutes after the administration of the sEHI. Compounds were formulated by dissolving them in ethanol and mixing with trans free oleic oil. At least six animals per group were used. The Von Frey test was conducted by stimulating the plantar surface of the rats' hind paw with a calibrated filament connected to a force transducer. As this filament is applied the amount of force exerted on the paw increases and the animal withdraws its paw when the force reaches its threshold. […] In the Randal-Selitto test a similar principle is used. The animals' hind paw is placed between a flat surface and a pointed tip of a force transducer. The pointed tip exerts force on the dorsal face of the paw. […] The two tests are complementary, but depend on the activity of different groups of nociceptors.

sEH [4] = target: T2, sEH (Homo sapiens, UniProt P34913); assay: inhibition of sEH; format: biochemical
T2 sequence (P34913 1-555): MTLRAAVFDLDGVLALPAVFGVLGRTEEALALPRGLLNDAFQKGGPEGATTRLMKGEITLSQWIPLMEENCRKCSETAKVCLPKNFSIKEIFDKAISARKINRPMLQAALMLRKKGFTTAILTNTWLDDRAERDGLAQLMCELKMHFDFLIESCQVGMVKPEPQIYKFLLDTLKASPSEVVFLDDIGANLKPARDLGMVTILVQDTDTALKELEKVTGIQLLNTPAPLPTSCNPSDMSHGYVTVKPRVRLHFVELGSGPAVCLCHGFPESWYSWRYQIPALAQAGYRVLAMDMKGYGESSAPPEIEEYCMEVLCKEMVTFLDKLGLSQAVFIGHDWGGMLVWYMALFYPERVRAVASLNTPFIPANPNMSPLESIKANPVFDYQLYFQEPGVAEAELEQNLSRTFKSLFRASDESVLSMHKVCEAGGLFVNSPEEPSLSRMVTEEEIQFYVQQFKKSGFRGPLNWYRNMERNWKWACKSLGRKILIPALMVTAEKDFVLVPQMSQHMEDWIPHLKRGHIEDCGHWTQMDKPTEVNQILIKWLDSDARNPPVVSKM
Source text: as §1, §2, §3

metabolism and stability = conditions: in vivo

For CCOCCOCCOCCCCCNC(=O)NC12CC3CC(CC(O)(C3)C1)C2 [compound 1010, reference compound], the IC50 (rat sEH) was 1.16 µM, the “fold less active in inhibiting sEH than parent compound” value (sEH [1]) was 250 fold and the “pain scores of diabetic rats” value [2] was “not”. The “pain, mechanical hyperalgesia test (FIG. 3)” value ([3]; 25 mg/kg) was “showed no effectiveness” and the “mechanical allodynia induced by diabetic neuropathy (FIG. 3 legend)” value ([3]; compound 1010 at equivalent dose) was “shows no effectiveness in reducing nociception”.

In the case of CCCCCCCCCCCCNC(=O)NC12CC3CC(CC(C3)C1)C2 [ADU, N-Adamantyl-N-dodecyl urea], the “activity as inhibitor of sEH” value (sEH [4]) is reported as “particularly high activity on sEH” and the metabolic stability (metabolism and stability) is reported as “metabolically stable”.
